Source: patent publication US20070292351A1, “Assay for efficacy of histone deacetylase inhibitors” (Methylgene, Inc., priority 2006, published 2007)
“And” between values parts separate entries of the source, which are not always exact repeats. Equal values may be shown once. Read-outs that look alike come from different tables or passages of the source.

Tests used:
human colon HCT15 cells = test: Microarray gene expression analysis, HCT15 cells in vitro; type: cell-based; details: HCT-15, HCT15 in vitro
Procedure: (§1) Human cancer cell lines were from American Type Culture Collection (Manassas, Va.) and were all cultured following the vendor's instructions.
(§2) Biological analysis was performed using Biointerpreter software.

[1] = test system: human leukemic MV-4-11 cells; test: Microarray gene expression analysis, MV-4-11 cells in vitro; type: cell-based; details: MV-4-11 in vitro, 1 uM, c2-c5 = sample 1, 2, 3, sample 3 dye swap
Procedure: as §1, §2

human RPMI8226 cells = test: IL-6 transcription in RPMI8226 cells; type: cell-based; details: 24 hours (FIG. 14)
Procedure: Quantitative PCR with SYBR Green I detection with Mastercycler® ep realplex (Eppendorf) was performed using LightCycler® 480 SYBR Green I Master (Roche Diagnostics). SYBR Green I assays were performed with 600 nM primers. All other reaction conditions were as described by the manufacturer. Amplification conditions were 5 minutes of initial denaturation at 95° C., followed by 40 cycles of each 15 seconds at 95° C., 15 seconds at 63.4° C., 20 seconds at 68° C., a melting curve from 60° C. to 95° C. was recorded. Quantification was performed using Pfaffl method, a relative quantification method in real-time PCR (Nucleic Acids Research 2001 29:2002-2007). Primers were synthesized by Invitrogen (Invitrogen-Canada, Burlington, Ont.).

[2] = test system: human peripheral white cells; test: Microarray gene expression analysis, peripheral white cells ex vivo; type: cell-based; details: WBC ex vivo
Procedure: (§3) Whole blood from either consenting healthy volunteers or consenting patients was centrifuged at 2500 rpm for 10 minutes at ambient temperature in a Sorvall RT-7 centrifuge (Mandel Scientific Co., Guelph, Ontario). Plasma was removed and buffy coat was collected. Five volumes of Erythrocyte Lysis Buffer (EL) (Qiagen Canada Inc., Mississauga, Ontario) were added into buffy coat. Buffy coat was incubated on ice for 20 minutes before it was centrifuged at 400 g for 10 minutes at 4° C. Supernatant was removed and buffy coat was washed twice with EL buffer and re-centrifuged. Buffy coat was resuspended in RPMI media and cells were counted with trypan blue exclusion. To isolate PBMCs, buffy coat cells were centrifuged over Lymphoprep (Axis-Shield, 1114544), and any remaining erythrocytes in the sample were lysed by treatment with EL lysis buffer (Qiagen, 79217). The cell pellets are washed and then re-suspended in RPMI containing 10% FBS.
as §2

[3] = test system: peripheral blast cells from AML patients; test: Microarray gene expression analysis, AML patients treated with MGCD0103 in vivo; set-up: species or system human; details: for Fold of Induction of CCL4 transcription / Fold of Induction of CCL7 transcription / Fold of Induction of IFNG transcription / Fold of Induction of THBS1 transcription: AML Patient A (clinical response)
Procedure: as §3, §2
Human patients with either solid tumors or leukemia/MDS diseases were enrolled in phase I studies with consensus forms. MGCD0103 were dosed into patients orally every other day (day 1, day 3, day 5 […]). Blood samples were withdrawled by using the Vacutainer sodium-heparin blood collection tubes (Becton Dickinson Laboratories, Franklin Lakes, N.J.) and shipped to the test site within 24 hours on ice-pack. Baseline samples were drawn immediately prior to the first drug dose, while the 24 hour samples were drawn at 24 hours post the first drug dose. The 48 hours samples were drawn at 48 hours post the first dose. For the 1 week samples, blood was drawn 72 hours after day 5 dose (3 accumulated doses during week 1).

[4] = probe A_23_P16523, read-out: Fold Induction of GDF15 transcription
[5] = probe A_23_P41344, read-out: Fold Induction of EREG transcription
[6] = probe A_23_P52336, read-out: Fold Induction of UNC5B transcription
[7] = probe A_23_P94754, read-out: Fold Induction of TNFSF15 transcription
[8] = probe A_23_P114947, read-out: Fold Induction of RGS2 transcription
[9] = probe A_23_P142506, read-out: Fold Induction of GADD45B transcription
[10] = probe A_23_P149019, read-out: Fold Induction of BAI2 transcription
[11] = probe A_23_P151046, read-out: Fold Induction of KLRC1 transcription
[12] = probe A_23_P259071, read-out: Fold Induction of AREG transcription
[13] = probe A_23_P315273, read-out: Fold Induction of MT3 transcription
[14] = probe A_24_P5856, read-out: Fold Induction of TNFSF9 transcription
[15] = probe A_24_P217520, read-out: Fold Induction of EREG transcription

## Nc1ccccc1NC(=O)c1ccc(CNc2nccc(-c3cccnc3)n2)cc1 [MGCD0103]
Human colon HCT15 cells; [4]
  fold induction at 1 µM: 4.18
Human colon HCT15 cells; [5]
  fold induction at 1 µM: 4.62
Human colon HCT15 cells; [6]
  fold induction at 1 µM: 5.7
Human colon HCT15 cells; [7]
  fold induction at 1 µM: 4.11
Human colon HCT15 cells; [8]
  fold induction at 1 µM: 2.75
Human colon HCT15 cells; [9]
  fold induction at 1 µM: 3.1
Human colon HCT15 cells; [10]
  fold induction at 1 µM: 5.13
Human colon HCT15 cells; [11]
  fold induction at 1 µM: 9.29
Human colon HCT15 cells; [12]
  fold induction at 1 µM: 9.39
Human colon HCT15 cells; [13]
  fold induction at 1 µM: 7.65
Human colon HCT15 cells; [14]
  fold induction at 1 µM: 2.96
Human colon HCT15 cells; [15]
  fold induction at 1 µM: 4.14
[1]
  Ratio vs control, ADORA1: 3.6 and 5.4 and 5.1
  Ratio vs control, AHR: 11.3 and 10.5 and 13.1 and 10.2
  Ratio vs control, APOE: 5.9 and 6.3 and 6.0 and 6.1
  Ratio vs control, AXUD1: 2.5 and 3.9 and 3.1
  Ratio vs control, BMF: 6.0 and 7.4 and 6.7 and 7.1
  Ratio vs control, CARD10: 2.7 and 4.4 and 3.0 and 3.9
  Ratio vs control, CASP5: 2.7 and 2.5 and 3.0 and 2.6
  Ratio vs control, CASP7: 5.0 and 7.2 and 5.2 and 5.8
  Ratio vs control, CAST: 2.7 and 3.0 and 2.5 and 3.2
  Ratio vs control, CD40: 8.0 and 7.2 and 7.0 and 8.7
  Ratio vs control, CDKN1A: 4.4 and 4.0 and 4.6 and 3.9
  Ratio vs control, CLU: 20.2 and 13.8 and 14.7 and 14.4
  Ratio vs control, DNASE2: 10.5 and 11.4 and 12.1 and 12.9
  Ratio vs control, EIF2AK2: 17.9 and 21.1 and 18.1 and 26.7
  Ratio vs control, GPR65: 7.8 and 6.5 and 7.9 and 6.6
  Ratio vs control, HIPK2: 4.1 and 6.6 and 4.6 and 4.2
  Ratio vs control, IL1B: 9.6 and 11.2 and 8.5 and 11.4
  Ratio vs control, IL3RA: 4.4 and 4.3 and 5.1 and 3.3
  Ratio vs control, IL18: 4.5 and 7.9 and 6.5 and 5.5
  Ratio vs control, LY86: 4.5 and 3.6 and 3.8 and 4.3
  Ratio vs control, MAP3K14: 2.6 and 2.8
  Ratio vs control, MX1: 35.8 and 27.5 and 38.0 and 23.2
  Ratio vs control, NALP1: 7.3 and 7.4 and 6.4
  Ratio vs control, NGFR: 3.0 and 2.7 and 2.6 and 2.8
  Ratio vs control, PDE1B: 4.3 and 3.4 and 4.8 and 3.6
  Ratio vs control, PPP3CA: 2.7 and 3.0 and 3.3 and 2.6
  Ratio vs control, PRKAR2B: 10.8 and 7.2 and 11.1 and 7.6
  Ratio vs control, TNFRSF21: 4.1 and 6.4 and 4.7 and 5.2
  Ratio vs control, TNFRSF25: 4.2 and 4.0 and 4.4 and 3.6
  Ratio vs control, TNFSF10: 7.4 and 7.2 and 10.1 and 5.6
  Ratio vs control, TNFSF14: 5.1 and 3.7 and 3.9 and 4.6
[1]; gene listed twice (r23, r58)
  Ratio vs control, BNIP3L: 4.9 and 3.2 and 3.4 and 2.6 and 3.5 and 2.9
[1]; gene listed twice (r64, r66)
  Ratio vs control, CASP4: 2.7 and 2.8 and 2.6 and 2.9 and 3.0 and 2.5 and 3.1
Human RPMI8226 cells
  dose-dependent induction of IL-6 transcription: dose-dependent induction
[2]; [4]
  fold induction at 1 µM: 18.8
[2]; [5]
  fold induction at 1 µM: 12.8
[2]; [6]
  fold induction at 1 µM: 2.66
[2]; [7]
  fold induction at 1 µM: 4.43
[2]; [8]
  fold induction at 1 µM: 4.43
[2]; [9]
  fold induction at 1 µM: 2.9
[2]; [10]
  fold induction at 1 µM: 2.69
[2]; [11]
  fold induction at 1 µM: 3.12
[2]; [12]
  fold induction at 1 µM: 32.6
[2]; [13]
  fold induction at 1 µM: 5.16
[2]; [14]
  fold induction at 1 µM: 3.32
[2]; [15]
  fold induction at 1 µM: 10.5
[3]; 24 hr
  Fold of Induction of CCL4 transcription: 1.4 fold
  Fold of Induction of CCL7 transcription: 2.3 fold
  Fold of Induction of IFNG transcription: 1.4 fold
  Fold of Induction of THBS1 transcription: 1.4 fold
[3]; day 8
  Fold of Induction of CCL4 transcription: 12.2 fold
  Fold of Induction of CCL7 transcription: 7.3 fold
  Fold of Induction of IFNG transcription: 2.5 fold
  Fold of Induction of THBS1 transcription: 2.8 fold
[3]; peripheral blast cells, D8 vs 0 h, AML Patient A (response), in contrast to Patients B, C, D (FIG. 11)
  Induction of transcription of a subset of proapoptotic proteins: Induction
[3]; three other AML patients without response
  induction of transcription of the Table 5 genes (CCL7, CCL4, IFNG, THBS1): <= 1 fold
